One experiment deals with hsp90. The settings on record: read-out: kds, DSG-hsp complexes; cited from earlier work.
In experiment [1] the test system is ΔF508-CFTR (JME/CF15 cells). The experiment can be described thus: SPQ assay, cAMP-stimulated Cl- channel activity, JME/CF15 cells. Type of experiment: cell-based, human. The method, then: (§1) The cAMP-dependent CFTR Cl^- channel activity was assessed using the halide-sensitive fluorophore 6-methoxy-N-(3-sulfopropyl)-quinolinium (SPQ) essentially as described previously (Cheng et al., (1995), supra.; Marshall et al., supra.). Briefly, the cells were treated with different amounts of DSG for the times specified. At the end of the treatment period, the cells were loaded with SPQ by hypotonic shock for 4 min at room temperature. SPQ fluorescence initially was quenched by incubating the cells for up to 30 min in a NaI buffer (135 mM NaI, 2.4 mM K2 HPO4, 0.6 mM KH2 PO4, 1 mM MgSO4, 1 mM CaSO4, 10 mM dextrose, and 10 mM N-2 hydroxyethylpiperazine-N'2-ethanesulfonic acid, pH 7.4). After measuring the baseline fluorescence (Fo) for 2 min., the NaI solution was replaced with one containing 135 mM NaNO3, and fluorescence was measured for another 16 min. Forskolin (20 μM) and 3-isobutyl-1-methyl-xanthine (IBMX) (100 μM) were added 5 min after the anion substitution to increase intracellular levels of cAMP.
An increase in halide permeability is reflected by a more rapid increase in SPQ fluorescence. It is the rate of change rather than the absolute change in signal that is the important variable in evaluating anion permeability. Differences in absolute levels reflect quantitative differences between groups in SPQ loading, size of cells, or number of cells studied. The data are presented as means± SE of fluorescence at time t (Ft) minus the baseline fluorescence (Fo, the average fluorescence measured in the presence of I^- for 2 min. before ion substitution) and are representative of results obtained under each condition.
For each experiment, between 50 to 100 cells were examined on a given day and studies under each condition were repeated on at least two days. […] There was a broad spectrum in the rate of change in SPQ fluorescence observed with responsive cells. Normally, cells were scored as responsive if they generated a minimum of a […] change in the rate of increase in SPQ fluorescence following stimulation with cAMP agonists. […]

Another experiment concerns the target hsc70 (hsp70). The settings on record: cited from earlier work.
Experiment [2] concerns ΔF508-CFTR (LLCPK1-ΔF508 cells). As to the kind of experiment: SPQ assay, cAMP-stimulated Cl- channel activity, LLCPK1-ΔF508 cells. The class given is cell-based. How it is done: as §1, with “Forskolin (20 μM) and 3-isobutyl-1-methyl-xanthine (IBMX) (100 μM) were added 5 min after the anion substitution to increase intracellular levels of cAMP.” left out
An increase in halide permeability is reflected by a more rapid increase in SPQ fluorescence. […] Differences in absolute levels reflect quantitative differences between groups in SPQ loading, size of cells, or number of cells studied. The data are presented as means± SE of fluorescence at time t (Ft) minus the baseline fluorescence (Fo, the average fluorescence measured in the presence of I^- for 2 min. before ion substitution) and are representative of results obtained under each condition. […]

For experiment [3], the system named is ΔF508-CFTR (C127-ΔF508-low cells). The experiment can be described thus: immunoprecipitation analysis for mature band C-CFTR in C127-ΔF508-low cells. The settings on record: DSG 10 to 100 μg/ml, 48 to 72 h. Type of experiment: cell-based. The text has this: Detailed procedures for preparing cell lysates, immunoprecipitation, phosphorylation of CFTR using protein kinase A and [γ^32 P]ATP, and polyacrylamide gel electrophoresis have all been described previously (Cheng et al., (1995), supra.; Marshall et al., supra.).
C127-ΔF508-low (mouse mammary tumor) is a recombinant cell line stably transfected with the cDNA encoding the mutant ΔF508-CFTR (Cheng et al. (1995), supra.; Marshall et al. (1994), J. Biol. Chem. 269: 2987-2995). […] C127-mock is a cell line that has been stably transfected with the backbone of the expression vector used to generate C127-ΔF508-low (Cheng et al. (1995), supra.). LLCPK1 -ΔF508 (pig kidney epithelial) is a recombinant cell line stably expressing low levels of the mutant ΔF508-CFTR protein (Marshall et al., supra.). The details of the generation, characterization and routine propagation of these cell lines has been described (Cheng et al. (1995), supra.; Marshall et al., supra.).
To test whether treatment with DSG may interfere with the ability of hsp70 to retain ΔF508-CFTR in the ER, recombinant C127 cells expressing ΔF508-CFTR were seeded onto glass coverslips and were exposed to DSG (10 to 100 μg/ml) (Bristol Myers Squibb, Seattle, Wa.) for 48 to 72 h. Analysis for evidence of mature band C-CFTR (Cheng et al. (1990), supra.) which would be indicative of processing of ΔF508-CFTR in the Golgi was performed. […]

Entries after “also recorded” stand apart in the source; their conditions may differ. Like-named read-outs stand apart in the source and are kept apart here.

With `N=C(N)NCCCCCCC(=O)NC(O)C(=O)NCCCCNCCCN` (centres unmarked) [DSG, deoxyspergualin], the Kd on hsp90 is 4 to 5 µM; on hsc70 (hsp70) (hsc70, Nadeau et al. (1994), read-out: Kd value for DSG binding to hsc70), 4 µM; on hsc70 (hsp70) (hsp70, read-out: kds, DSG-hsp complexes), 4 to 5 µM. Moreover, the “cAMP-stimulated Cl- channel activity, in words” value is “more robust than that attained when cells were cultured at low temperature; also recorded: a greater number of responsive cells was observed when 10 μg/ml of DSG was used instead of 5 μg/ml; also recorded: no further significant increment in response was noted at concentrations higher than 10 μg/ml; also recorded: increased cAMP-mediated chloride channel activity; also recorded: comparable to that observed when these cells were cultured at a reduced temperature; also recorded: displayed cAMP-responsive Cl^- channel activity” in experiment [1] (72 h) and “marginal; also recorded: Data similar to those described for C127-ΔF508-low cells” in experiment [2]. In experiment [1] (FIG. 4), the “percentage of mature CFTR produced from CFTRΔF508 upon exposure to reduced temperatures” value is listed as “increases upon exposure to reduced temperatures”. Further, the “affinity for hsps, in words” value in the experiment with hsc70 (hsp70) (hsps, Nadler et al. (1992), Nadeau et al. (1994)) was “Pure human hsp90 and hsp70 have equivalent affinities for DSG”. For the same molecule, the “mature band C form of CFTR” value in experiment [3] is listed as “the presence of any mature band C-form of CFTR could not be demonstrated; also recorded: no discernible evidence of the mature band C form of CFTR”.
